US7601750B2, “Small molecule inhibition of a PDZ-domain interaction” (The Regents of the University of California, priority 2003, dated 2009)

Key:
H1703 = assay: Apoptotic effects in cancer cells overexpressing Dvl, H1703; format: cell-based, human
Method: (§1) Compounds were tested for apoptotic effects to represent the inhibitory effects of compounds on interaction between the PDZ domain of the Dishevelled (Dlv) protein and the Fz protein (Wnt receptor). Cell lines H513 and H1703 were utilized, with test compounds (compound numbers from Tables 1 and 2) being applied at 0 (control), 10 μM and 100 μM.

[1] = system: human lung cancer (H1073) cells; assay: Growth suppression and apoptosis in lung cancer cells (other tests); format: cell-based; conditions: 100 μM, after 4 days
[2] = system: human Dishevelled (Dvl) protein; assay: Binding to Dishevelled protein
[3] = system: Wnt/beta-Catenin signaling; assay: Inhibition of Wnt/beta-Catenin signaling in A549; format: cell-based; conditions: human lung cancer cell line A549
[4] = system: Wnt/beta-Catenin signaling; assay: Inhibition of Wnt/beta-Catenin signaling in H1703; format: cell-based; conditions: human lung cancer cell line H1703
H513 = assay: Apoptotic effects in cancer cells overexpressing Dvl, H513; format: cell-based, human; conditions: for apoptosis, %: H513, 1 day
Method: as §1

[5] = system: human lung cancer (H460) cells; assay: Growth suppression and apoptosis in lung cancer H460 cells (other tests); format: cell-based; conditions: 100 μM, after 4 days
[6] = system: human melanoma (LOX) cells; assay: Growth suppression and apoptosis in melanoma cells (other tests); format: cell-based; conditions: 100 μM, after 4 days

Row | Compound | apoptosis, % (H1703; 10 μM, H1703, 4 days) | apoptosis, % (H1703; 100 μM, H1703, 4 days) | suppress cancer cell growth and induce apoptosis, % of the population [1] | apoptosis, % (H1703; 10 μM, H1703, 1 day) | apoptosis, % (H1703; 100 μM, H1703, 1 day) | binding to human Dishevelled (Dvl) protein [2] | inhibition of Wnt/beta-Catenin signaling [3] | inhibition of Wnt/beta-Catenin signaling [4] | apoptosis, % (H513; 10 μM) | apoptosis, % (H513; 100 μM) | suppress cancer cell growth and induce apoptosis, % of the population (H513; 100 μM, after 4 days, human mesothelioma (H513) cells) | suppress cancer cell growth and induce apoptosis, % of the population [5] | suppress cancer cell growth and induce apoptosis, % of the population [6]
1 | CCCCC(O)c1cc2cc(C)c(C(=O)O)cc2n1CCc1ccccc1 (stereo not shown) [Compound 1, [2-(1-Hydroxypentyl)-5-methyl-1-(2-phenylethyl)]indole-6-carboxylic acid] | 6.2% | 38.7% |  |  |  |  |  |  |  |  |  |  | 
2 | CCCCCc1c(CO)c2cc(C)c(C(=O)[O-])cc2n1CCc1ccccc1.[Na+] [Compound 6, Sodium [3-hydroxymethyl-2-(1-pentyl)-1-(2-phenylethyl)-5-methyl]indole-6-carboxylate] |  |  | up to 85.2% | 8.2% | 34.0% | bind | inhibit | inhibit | 14.3% | 52.5% | over 50% | about 20% | 35%
